These results are taken from PMC6934184, “Selective DNA-PKcs inhibition extends the therapeutic index of localized radiotherapy and chemotherapy” (The Journal of Clinical Investigation, 2019).

The target in the assay is T1, BMX (Homo sapiens, UniProt P51813).
T1 construct: purchased Thermo Fisher Scientific (Life Technologies) SelectScreen
Nature of the assay: SelectScreen Z'LYTE. The format is biochemical. The method, boiled down:
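SelectScreen broad panel; activity (Z'LYTE, Adapta) plus binding formats. ATP: Km app for CSF1R Z'LYTE; 10 for CAMK1 Adapta. Readout = % per kinase.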

The inhibition is the percentage by which the read-out fell short of the control.

T1 sequence (P51813 whole entry): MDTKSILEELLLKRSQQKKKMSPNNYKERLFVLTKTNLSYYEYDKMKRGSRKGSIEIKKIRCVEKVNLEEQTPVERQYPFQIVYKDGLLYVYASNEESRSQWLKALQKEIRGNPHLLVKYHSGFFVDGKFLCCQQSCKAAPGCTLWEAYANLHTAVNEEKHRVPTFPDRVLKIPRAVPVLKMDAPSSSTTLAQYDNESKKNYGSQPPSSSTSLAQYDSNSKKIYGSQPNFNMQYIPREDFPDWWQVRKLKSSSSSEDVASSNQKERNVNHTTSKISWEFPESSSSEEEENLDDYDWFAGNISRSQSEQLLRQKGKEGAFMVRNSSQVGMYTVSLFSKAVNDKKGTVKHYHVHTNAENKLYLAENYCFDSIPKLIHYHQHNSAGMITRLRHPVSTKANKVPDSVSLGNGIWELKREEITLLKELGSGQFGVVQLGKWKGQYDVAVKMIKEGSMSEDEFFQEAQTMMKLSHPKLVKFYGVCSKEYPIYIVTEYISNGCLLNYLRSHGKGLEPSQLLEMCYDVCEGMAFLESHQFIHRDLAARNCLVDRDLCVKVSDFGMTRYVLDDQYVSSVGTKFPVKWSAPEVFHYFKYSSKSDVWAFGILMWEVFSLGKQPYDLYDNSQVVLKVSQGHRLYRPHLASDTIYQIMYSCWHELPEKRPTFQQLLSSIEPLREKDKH

In turn, `CN(C(=O)CN1CCOCC1)c1ccc2sc3c(-c4cccc5c(=O)cc(N6CC7CCC(C6)O7)oc45)cccc3c2c1` [NU5455] had an inhibition at 1 µM of 4.4%.
